# Assays:
# [1] = system: valine positions, mutant ValRS; settings: mutant E. coli strain grown in presence of Abu; cited from earlier work
# mutant TyrRS (LWJ16) = target: T1, mutant TyrRS (LWJ16) (Methanocaldococcus jannaschii, UniProt Q57834, D158A/E107T/L162P/N268S/Y32Q); assay: pyrophosphate-exchange assay (adenylate formation with ATP); type: biochemical, M. jannaschii; settings: for Kcat / Km: 37° C., pH7.5
# T1 construct: The mutant TyrRS (LWJ16) gene with six histidines at its C-terminus was cloned into plasmid pQE-60; His6 (C); made in house
# Method: Kinetics of adenylate formation of O-methyl-L-tyrosine and tyrosine with ATP catalyzed by the mutant TyrRS (LWJ16) were analyzed in vitro using a pyrophosphate-exchange assay. The mutant TyrRS (LWJ16) gene with six histidines at its C-terminus was cloned into plasmid pQE-60 (Qiagen, CA) to afford plasmid pQE-mJYRS. Protein was purified by immobilized metal affinity chromatography according to manufacture's protocol (Qiagen, CA). Pyrophosphate (PPi) exchange was carried out at 37° C. in a reaction mixture containing 100 mM Tris HCl (pH7.5), 10 mM KF, 5 mM MgCl2, 2 mM ATP, 2 mM NaPPi, 0.1 mg/mL bovine serum albumin, approximately 0.01 microCi/mL [32P]NaPPi, and various concentrations of tyrosine or O-methyl-L-tyrosine. Reactions were initiated with the addition of the purified mutant TyrRS (LWJ16), and aliquots were periodically taken and quenched with 0.2 M NaPPi, 7% perchloric acid, and 2% activated charcoal. The charcoal was filtered and washed with 10 mM NaPPi (pH2), then measured by scintillation counting to determine the 32P levels in charcoal-adsorbed ATP. Values of kcat and Km were calculated by direct fitting of the Michaelis-Menten equation using nonlinear regression analysis.
# E. coli = assay: effect of the amino acid on growth rate of E. coli; type: cell-based; settings: 1 mM
# Method: Following the two rounds of selection and DNA shuffling, a clone (mutant TyrRS (LWJ16)) was evolved whose survival in chloramphenicol was dependent on the addition of 1 mM O-methyl-L-tyrosine to the growth media. In the absence of O-methyl-L-tyrosine, cells harboring the mutant TyrRS (LWJ16) were not viable on minimal media plates containing 1% glycerol, 0.3 mM leucine (GMML), and 15 micrograms/mL of chloramphenicol. Cells were able to grow on GMML plates with 125 micrograms/mL chloramphenicol in the presence of 1 mM O-methyl-L-tyrosine. Similar results were obtained in liquid GMML.
# [2] = system: cells expressing m-acetyl phenylalanine-incorporated DHFR
# Method: Cells expressing the “ketone handle”-incorporated DHFR were incubated with fluorescein hydrazide solution. After 36 hours at 4° C. and extensive washes to remove excess fluorescein hydrazide, the labeled DHFR protein was purified and subjected to fluorescence emission tests. As a negative control in parallel, m-methoxy phenylalanine-incorporated DHFR was also purified with the same procedures.
# [3] = system: yeast amber suppressor tRNAPheCUA/phenylalanyl-tRNA synthetase pair; settings: cited from earlier work
# SjGST homodimer = assay: photo-activated crosslinking of SjGST (365 nm, SDS-PAGE); set-up: species or system Schistosoma Japonica; settings: long wavelength UV irradiation, 5 minutes
# Text: In vivo incorporation of pBpa into GST. […] This protein is a dimer of two identical subunits which have previously been crosslinked non-specifically using gluteraldehyde. The crystal structure of the dimeric Schistosoma Japonica glutathione-S-transferase (SjGST) (McTigue, M. A., Williams, D. R. & Tainer, J. A. Journal of Molecular Biology 246, 21-27 (1995)) was used to identify two sites to substitute with pBp: residue Phe52, which is buried in the dimer interface of the crystal structure, and residue Tyr198 which is solvent exposed. The codons corresponding to Phe52 or Tyr198 in the gene for a 27 kDa protein Sj GST, were replaced with amber codons. The orthogonal synthetase tRNA pair was then used to site specifically incorporate pBpa into SjGST in E. coli at these sites. Upon irradiation with long wavelength ultraviolet radiation, purified SjGST was converted to a covalently linked homodimer as judged by denaturing SDS PAGE. Approximately 70% of the SjGST present was crosslinked in 5 minutes.
# Photo-activated crosslinking. Crosslinking reactions were performed in a 96 well microtitre plate (Nuncsorb) using 100 μL of 10 ng/μL SjGST (in 50 mM NaH2Po4, 300 mM NaCl, 250 mM imidazole) at 4° C. Samples were irradiated at 365 nm using a handheld UV lamp (1 SV, 60 Hz, 0.2 A; Spectronics, NY, USA), for 1 min or 5 min. […]
# [4] = system: Asp112TAG codon in the CAT gene; assay: in vivo chloramphenicol acetyltransferase assay (suppression of Asp112TAG codon in CAT gene, pYC-J17); type: cell-based, E. coli; settings: GMML plates
# Method: A positive selection was then applied that is based on suppression of an amber stop codon at a nonessential position (Asp112) in the chloramphenicol acetyltransferase (CAT) gene (M. Pastrnak, T. J. Magliery, P. G. Schultz, Helvetica Chimica Acta. 83, 2277-86 (2000)). Cells were grown in media containing the unnatural amino acid and selected for their survival in the presence of various concentration of chloramphenicol. If a mutant TyrRS charges the orthogonal mtRNACUA^Tyr with any amino acid, either natural or unnatural, the cell produces CAT and survives.
# The gene encoding mtRNACUA^Tyr under the control of the lpp promoter and rrnC terminator was inserted into plasmid pACMD112TAG (a pACYC184 plasmid with a TAG stop codon replacing Asp112 in its CAT gene (M. Pastrnak, T. J. Magliery, P. G. Schultz, Helvetica Chimica Acta. 83, 2277-86 (2000))) to afford plasmid pYC-J17. Supercoiled DNA encoding the TyrRS library was transformed into E. coli DH10B competent cells containing pYC-J17 to yield a library of size greater than 3×10^9 cfu, ensuring complete coverage of the original library. Cells were then plated on minimal media plates containing 1% glycerol and 0.3 mM leucine (GMML) with 17 micrograms/mL tetracycline(Tet), 25 micrograms/mL kanamycin (Kan), 50 micrograms/mL of chloramphenicol (Cm), and 1 mM unnatural amino acid. […]
# [5] = system: amber codons in T7 RNA polymerase gene driving GFPuv; assay: fluorimetric analysis, T7 RNA polymerase/GFPuv reporter (pREP/YC-JYCUA); type: cell-based, E. coli; settings: presence versus absence of OAT
# Method: Construction of a multipurpose reporter plasmid. In order to construct a multipurpose plasmid to be used both for selecting and screening variants of a M. jannaschii TyrRS, plasmid pREP(10) was combined with plasmid pYC-J17 (Wang, L, Brock, A., Herberich, B. & Schultz, P. G., Science, 2001, 292, 498-500) to obtain pREP/YC-JYCUA (FIG. 7b). Plasmid pREP/YC-JYCUA was assayed for function with a compatible plasmid expressing a variant of M. jannaschii TyrRS (pBK-mJYRS; Wang, L, Brock, A., Herberich, B. & Schultz, P. G., Science, 2001, 292, 498-500) selective for incorporating O-Methyl-Tyrosine (OMY).
# As described above, the T7 RNA polymerase/GFP system can be used to quantitatively compare the activities of synthetase variants. […] The fluorescence enhancement for cells grown in the presence versus the absence of the unnatural amino acid is thus about 6-fold higher for cells expressing OAT-RS (1) from selection and screening than for cells expressing the OAT-RS clone derived from positive/negative selection using barnase. […] However, the fluorescence enhancement for cells grown in the presence versus the absence of an unnatural amino acid is expected to represent a lower limit for the fidelity of unnatural amino acid incorporation, as competition of unnatural amino acids for being bound by an evolved synthetase variant would reduce binding of natural amino acids. […]
molecule,measurement,setting,value
"CCC(N)C(=O)O (centres unmarked) [Abu, aminobutyrate]",valines replaced at each valine position in the native protein,[1],about 24%
N[C@@H](Cc1ccc(O)cc1)C(=O)O [L-tyrosine],Km higher than that for O-methyl-L-tyrosine,mutant TyrRS (LWJ16),approximately 13 fold
same,kcat down relative to that for O-methyl-L-tyrosine,mutant TyrRS (LWJ16),8 fold
same,Kcat,mutant TyrRS (LWJ16),1.8 ± 0.2 10 − 3 s − 1
same,Km,mutant TyrRS (LWJ16),5.83 mM
COc1ccc(C[C@H](N)C(=O)O)cc1 [O-methyl-L-tyrosine],kcat/Km higher than that of tyrosine,mutant TyrRS (LWJ16),about 100 fold
same,Kcat,mutant TyrRS (LWJ16),14 ± 1 10 − 3 s − 1
same,Km,mutant TyrRS (LWJ16),0.443 mM
same,effect on growth rate of E. coli,E. coli,does not significantly affect the growth rate
NN1C(=O)c2ccccc2C12c1ccc(O)cc1Oc1cc(O)ccc12 [fluorescein hydrazide],cell permeability,[2],cell-permeable
same,lysis of cells,[2],does not lyse cells
"N[C@@H](Cc1ccc(F)cc1)C(=O)O [p-F-Phe, p-fluorophenylalanine]",amino acid found at the Phe codon positions,[3],7%
same,translation of the mutagenesis site with the amino acid,[3]; excess of p-F-Phe in growth media,64-75%
"SjGST: Schistosoma Japonica glutathione-S-transferase with pBpa, presumably at Phe52 in the dimer interface",SjGST crosslinked to covalent homodimer,SjGST homodimer,Approximately 70%
"mutant TyrRS (LWJ16) (protein, listed as Methanococcus jannaschii) MDEFEMIKRNTSEIISEEELREVLKKDEKSAQIGFEPSGKIHLGHYLQIKKMIDLQNAGFDIIILLADLHAYLNQKGELDEIRKIGDYNKKVFEAMGLKAKYVYGSTFQLDKDYTLNVYRLALKTTLKRARRSMELIAREDENPKVAEVIYPIMQVNAIHYPGVDVAVGGMEQRKIHMLARELLPKKVVCIHNPVLTGLDGEGKMSSSKGNFIAVDDSPEEIRAKIKKAYCPAGVVEGNPIMEIAKYFLEYPLTIKRPEKFGGDLTVSSYEELESLFKNKELHPMDLKNAVAEELIKILEPIRKRL",chloramphenicol concentration at which cells were not viable,[4]; absence of O-methyl-L-tyrosine,15 micrograms/mL
same,chloramphenicol concentration at which cells were able to grow,[4]; presence of 1 mM O-methyl-L-tyrosine,125 micrograms/mL
"OAT-RS (1): O-allyl-tyrosine synthetase clone from positive selection and negative FACS screening (protein, listed as Methanococcus jannaschii) MDEFEMIKRNTSEIISEEELREVLKKDEKSASIGFEPSGKIHLGHYLQIKKMIDLQNAGFDIIILLADLHAYLNQKGELDEIRKIGDYNKKVFEAMGLKAKYVYGSTFQLDKDYTLNVYRLALKTTLKRARRSMELIAREDENPKVAEVIYPIMQVNTYHYAGVDVAVGGMEQRKIHMLARELLPKKVVCIHNPVLTGLDGEGKMSSSKGNFIAVDDSPEEIRAKIKKAYCPAGVVEGNPIMEIAKYFLEYPLTIKRPEKFGGDLTVNSYEELESLFKNKELHPMDLKNAVAEELIKILEPIRKRL",fluorescence enhancement higher than for OAT-RS clone from positive/negative selection using barnase,[5],about 6 fold
